Reference: PubChem BioAssay AID330 (DTP/NCI, 2004)
Where “and” joins values, the source holds several entries; their conditions need not be identical. Equal entries are not always repeated. Inconclusive results and toxic doses are left out. The calls were made as follows: active = survival T/C of 150% or more; inactive = T/C below 125% in these data.

Tested on: P388 leukemia ip, CD2F1 mice, survival T/C
Assay: NCI In Vivo Anticancer Drug Screen. Data for tumor model P388 Leukemia (intraperitoneal) in CD2F1 (CDF1) mice
Settings: endpoint: median survival time, higher = longer survival
Method in brief: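 Mice carrying the transplanted tumor received test compound or vehicle. Survival was recorded in each group, and the value is the treated-group measurement divided by that of the vehicle-treated control group.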

[1] = dose: 12.5 mg/kg/injection, schedule: Q01DX005 (ip), vehicle: Klucel (hydroxypropylcellulose) (HPC)
[2] = dose: 25.0 mg/kg/injection, schedule: Q01DX005 (ip), vehicle: Klucel (hydroxypropylcellulose) (HPC)
[3] = dose: 50.0 mg/kg/injection, schedule: Q01DX005 (ip), vehicle: Klucel (hydroxypropylcellulose) (HPC)
[4] = dose: 100.0 mg/kg/injection, schedule: Q01DX005 (ip), vehicle: Klucel (hydroxypropylcellulose) (HPC)
[5] = dose: 200.0 mg/kg/injection, schedule: Q01DX005 (ip), vehicle: Klucel (hydroxypropylcellulose) (HPC)
[6] = dose: 25.0 mg/kg/injection, schedule: Q01DX009 (ip), vehicle: saline with Tween-80
[7] = dose: 50.0 mg/kg/injection, schedule: Q01DX009 (ip), vehicle: saline with Tween-80
[8] = dose: 50.0 mg/kg/injection, schedule: Q04DX003 (ip), vehicle: saline
[9] = dose: 100.0 mg/kg/injection, schedule: Q01DX009 (ip), vehicle: saline with Tween-80
[10] = dose: 100.0 mg/kg/injection, schedule: Q04DX003 (ip), vehicle: saline
[11] = dose: 200.0 mg/kg/injection, schedule: Q01DX009 (ip), vehicle: saline with Tween-80
[12] = dose: 60.0 mg/kg/injection, schedule: Q01DX005 (ip), vehicle: saline with Tween-80
[13] = dose: 50.0 mg/kg/injection, schedule: Q01DX001 (ip), vehicle: Klucel (hydroxypropylcellulose) (HPC)
[14] = dose: 100.0 mg/kg/injection, schedule: Q01DX001 (ip), vehicle: Klucel (hydroxypropylcellulose) (HPC)
[15] = dose: 50.0 mg/kg/injection, schedule: Q01DX009 (ip), vehicle: Klucel (hydroxypropylcellulose) (HPC)
[16] = dose: 100.0 mg/kg/injection, schedule: Q01DX009 (ip), vehicle: Klucel (hydroxypropylcellulose) (HPC)
[17] = dose: 200.0 mg/kg/injection, schedule: Q01DX009 (ip), vehicle: Klucel (hydroxypropylcellulose) (HPC)
[18] = dose: 50.0 mg/kg/injection, schedule: Q01DX005 (ip), vehicle: saline
[19] = dose: 25.0 mg/kg/injection, schedule: Q01DX009 (ip), vehicle: other
[20] = dose: 50.0 mg/kg/injection, schedule: Q01DX009 (ip), vehicle: other
[21] = dose: 100.0 mg/kg/injection, schedule: Q01DX009 (ip), vehicle: other

Measured: T/C

COc1cc(/C=C/c2ccc(O)c(OC)c2)cc(OC)c1
inactive: dose: 6.25 mg/kg/injection, schedule: Q01DX005 (ip), vehicle: Klucel (hydroxypropylcellulose) (HPC) 104 % of control | [1] 107 % of control | [2] 100 % of control | [3] 104 % of control and 108 % of control | [4] 95 % of control | [5] 88 % of control

O=[N+]([O-])c1cccc(C(O)C=C(C(F)(F)F)C(F)(F)F)c1 (configuration not stated)
inactive: [6] 100 % of control | dose: 25.0 mg/kg/injection, schedule: Q04DX003 (ip), vehicle: saline 100 % of control | dose: 33.0 mg/kg/injection, schedule: Q01DX009 (ip), vehicle: saline with Tween-80 109 % of control | [7] 113 % of control | [8] 95 % of control | dose: 75.0 mg/kg/injection, schedule: Q01DX009 (ip), vehicle: saline with Tween-80 113 % of control | [9] 113 % of control | [10] 100 % of control

CC(O)C(c1ccccc1)S(C)(=O)=O (configuration not stated)
inactive: [6] 101 % of control | [7] 110 % of control | [9] 116 % of control | [11] 113 % of control

COc1ccc(-c2cc(=O)cc(C(N)=O)o2)cc1
inactive: [12] 101 % of control | dose: 120.0 mg/kg/injection, schedule: Q01DX005 (ip), vehicle: saline with Tween-80 97 % of control | dose: 240.0 mg/kg/injection, schedule: Q01DX005 (ip), vehicle: saline with Tween-80 96 % of control

COc1cc(CC(=O)O)c([N+](=O)[O-])cc1C
inactive: dose: 25.0 mg/kg/injection, schedule: Q01DX001 (ip), vehicle: Klucel (hydroxypropylcellulose) (HPC) 90 % of control | [13] 91 % of control | [14] 91 % of control

O=C(O)COC(=O)c1ccc([N+](=O)[O-])cc1
inactive: dose: 100.0 mg/kg/injection, schedule: Q04DX003 (ip), vehicle: Klucel (hydroxypropylcellulose) (HPC) 99 % of control | dose: 200.0 mg/kg/injection, schedule: Q04DX003 (ip), vehicle: Klucel (hydroxypropylcellulose) (HPC) 108 % of control | dose: 400.0 mg/kg/injection, schedule: Q04DX003 (ip), vehicle: Klucel (hydroxypropylcellulose) (HPC) 100 % of control

N#CC(C#N)C(=O)c1ccccc1
inactive: [8] 103 % of control | [10] 102 % of control | dose: 200.0 mg/kg/injection, schedule: Q04DX003 (ip), vehicle: saline 95 % of control | dose: 400.0 mg/kg/injection, schedule: Q04DX003 (ip), vehicle: saline 95 % of control

O=S(=O)(O)CNc1ccc(Cl)cc1
inactive: [7] 113 % of control | [9] 113 % of control | [11] 106 % of control

COc1ccc(/C=C(/C#N)c2ccccc2)cc1
inactive: dose: 100.0 mg/kg/injection, schedule: Q04DX003 (ip), vehicle: other 100 % of control | dose: 200.0 mg/kg/injection, schedule: Q04DX003 (ip), vehicle: other 100 % of control | dose: 400.0 mg/kg/injection, schedule: Q04DX003 (ip), vehicle: other 104 % of control

CC1C2=C(CC(=O)NC2=O)C(=O)N1Cc1ccccc1 (configuration not stated)
inactive: [15] 103 % of control | [16] 106 % of control | [17] 97 % of control

OC(CC1CC2(CCN1)OCCO2)c1ccccc1 (configuration not stated)
inactive: dose: 12.5 mg/kg/injection, schedule: Q01DX005 (ip), vehicle: saline 105 % of control | dose: 25.0 mg/kg/injection, schedule: Q01DX005 (ip), vehicle: saline 105 % of control | [18] 108 % of control

COc1cccc2c1C(=O)c1c(O)c3c(c(O)c1C2=O)C[C@@](O)(C(=O)CO)C[C@@H]3OC1CC(NC(=O)CN)C(O)C(C)O1 (some centres not stated)
inactive: [19] 93 % of control | [20] 94 % of control | [21] 96 % of control

COc1ccc(C(=O)[Se][Se]C(=O)c2ccc(OC)cc2)cc1
inactive: dose: 6.25 mg/kg/injection, schedule: Q01DX009 (ip), vehicle: saline with Tween-80 100 % of control | dose: 12.5 mg/kg/injection, schedule: Q01DX009 (ip), vehicle: saline with Tween-80 102 % of control

O=[N+]([O-])c1cccc2c(Nc3ccc(S(=O)(=O)Nc4nccs4)cc3)c3ccccc3nc12
inactive: dose: 15.0 mg/kg/injection, schedule: Q01DX005 (ip), vehicle: saline with Tween-80 95 % of control | dose: 30.0 mg/kg/injection, schedule: Q01DX005 (ip), vehicle: saline with Tween-80 100 % of control | [12] 102 % of control and 97 % of control

CC1CCC[N+](C)([B-](F)(F)F)C1 (configuration not stated)
inactive: [18] 100 % of control | dose: 100.0 mg/kg/injection, schedule: Q01DX005 (ip), vehicle: saline 100 % of control

O=C(Cc1ccccc1)C1=S=C2SCCCN2C1=O
inactive: dose: 100.0 mg/kg/injection, schedule: Q01DX001 (ip), vehicle: saline with Tween-80 105 % of control | dose: 200.0 mg/kg/injection, schedule: Q01DX001 (ip), vehicle: saline with Tween-80 97 % of control | dose: 400.0 mg/kg/injection, schedule: Q01DX001 (ip), vehicle: saline with Tween-80 92 % of control

CCNC(=S)N=Nc1c(O)[nH]c2ccccc12
inactive: dose: 12.5 mg/kg/injection, schedule: Q01DX009 (ip), vehicle: saline 90 % of control | dose: 25.0 mg/kg/injection, schedule: Q01DX009 (ip), vehicle: saline 89 % of control | dose: 50.0 mg/kg/injection, schedule: Q01DX009 (ip), vehicle: saline 88 % of control and 89 % of control

CN(CCOc1c(I)cc(I)cc1I)CC(O)C(O)C(O)C(O)CO (configuration not stated)
inactive: [13] 110 % of control | [15] 94 % of control | [14] 108 % of control | dose: 200.0 mg/kg/injection, schedule: Q01DX001 (ip), vehicle: Klucel (hydroxypropylcellulose) (HPC) 109 % of control

CCOC=Nc1c(N)ncnc1Cl
inactive: [16] 102 % of control | [17] 105 % of control | dose: 400.0 mg/kg/injection, schedule: Q01DX009 (ip), vehicle: Klucel (hydroxypropylcellulose) (HPC) 106 % of control

CC(=O)OCCn1c2ccccc2nc2cc3c(cc21)c(Cl)c(=O)c1ccccc13
inactive: dose: 50.0 mg/kg/injection, schedule: Q04DX003 (ip), vehicle: saline with Tween-80 96 % of control | dose: 100.0 mg/kg/injection, schedule: Q04DX003 (ip), vehicle: saline with Tween-80 100 % of control | dose: 200.0 mg/kg/injection, schedule: Q04DX003 (ip), vehicle: saline with Tween-80 100 % of control

C=C1C(=O)OC2C1C(OC(=O)/C(C)=C/C)CC1(C)C(=O)CCC(=C)C21 (configuration not stated)
inactive: [1] 110 % of control | [2] 104 % of control and 106 % of control and 107 % of control | [3] 106 % of control and 109 % of control and 112 % of control | [4] 109 % of control | dose: 150.0 mg/kg/injection, schedule: Q01DX005 (ip), vehicle: Klucel (hydroxypropylcellulose) (HPC) 107 % of control | [5] 108 % of control and 111 % of control

CCOC(=O)C1=C(C(=O)c2cccc3ccccc23)C(c2ccc([N+](=O)[O-])cc2)C(C(=O)c2cccc3ccccc23)=C(C(=O)OCC)N1
inactive: dose: 60.0 mg/kg/injection, schedule: Q01DX005 (ip), vehicle: Klucel (hydroxypropylcellulose) (HPC) 87 % of control and 88 % of control | dose: 120.0 mg/kg/injection, schedule: Q01DX005 (ip), vehicle: Klucel (hydroxypropylcellulose) (HPC) 87 % of control | dose: 240.0 mg/kg/injection, schedule: Q01DX005 (ip), vehicle: Klucel (hydroxypropylcellulose) (HPC) 86 % of control and 95 % of control

Cn1c(N)c(C(=O)N2CCN(c3ccccc3)CC2)c(=O)n(C)c1=O
inactive: [15] 94 % of control | [16] 97 % of control | [17] 91 % of control

COc1ccc2[nH]c(=O)c(COC(C)=O)c(COC(C)=O)c2c1
inactive: [3] 87 % of control | [4] 87 % of control | [5] 97 % of control

COc1cccc(C(=O)c2ccccc2C(=O)O)c1
inactive: [3] 101 % of control | [4] 105 % of control | [5] 103 % of control

COc1cc(Br)c(C(=O)Nc2ccc(O)cc2)cc1OC
inactive: [19] 103 % of control and 107 % of control | [20] 110 % of control | [21] 106 % of control and 118 % of control | dose: 200.0 mg/kg/injection, schedule: Q01DX009 (ip), vehicle: other 106 % of control and 117 % of control | dose: 400.0 mg/kg/injection, schedule: Q01DX009 (ip), vehicle: other 106 % of control
